Measured values: PubChem BioAssay (NCI)
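Method: 48-hour compound exposure of cells in 96-well plates, five concentrations, linear interpolation of endpoints. At the GI50, growth is halved. TGI denotes the concentration required for complete inhibition of growth.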

Columns and labels:
Test in all cases: NCI anticancer screen, dose series, 48 h
786-0 renal = system: 786-0 renal
MALME-3M melanoma = system: MALME-3M melanoma
SF-295 CNS = system: SF-295 CNS
SNB-19 CNS = system: SNB-19 CNS
U251 CNS = system: U251 CNS
HOP-62 NSCLC = system: HOP-62 NSCLC
NCI-H226 lung = system: NCI-H226 lung
NCI-H460 lung = system: NCI-H460 lung
RPMI-8226 leukemia = system: RPMI-8226 leukemia
MDA-MB-231 breast = system: MDA-MB-231 breast

Row | SMILES | TGI (786-0 renal) [µM] | TGI (MALME-3M melanoma) [µM] | TGI (SF-295 CNS) [µM] | TGI (SNB-19 CNS) [µM] | TGI (U251 CNS) [µM] | TGI (HOP-62 NSCLC) [µM] | TGI (NCI-H226 lung) [µM] | TGI (NCI-H460 lung) [µM] | TGI (RPMI-8226 leukemia) [µM] | GI50 (786-0 renal) [µM] | GI50 (HOP-62 NSCLC) [µM] | GI50 (MDA-MB-231 breast) [µM] | TGI (MDA-MB-231 breast) [µM] | GI50 (NCI-H460 lung) [µM] | GI50 (RPMI-8226 leukemia) [nM] | GI50 (SNB-19 CNS) [µM] | GI50 (U251 CNS) [nM] | GI50 (NCI-H226 lung) [µM] | GI50 (SF-295 CNS) [µM]
1 | O=C(N/C(=C\c1cc(Cl)ccc1Cl)c1nc2ccccc2[nH]1)c1ccccc1 | 35.7 | > 100 | > 100 | > 100 | > 100 |  |  |  |  |  |  |  |  |  |  |  |  |  | 
2 | C[N+](C)(C)CC(=O)NC(=O)N/N=C\C(CC#N)CN(Cc1ccccc1)Cc1ccccc1 (stereo not drawn) | > 100 | > 100 | > 100 | > 100 | > 100 | > 100 | > 100 | > 100 |  |  |  |  |  |  |  |  |  |  | 
3 | COc1ccc(/C=N\N2C(=O)Cc3ccccc32)cc1 | > 100 | > 100 | > 100 | > 100 | > 100 | > 100 | > 100 | > 100 | > 100 |  |  |  |  |  |  |  |  |  | 
4 | COC(=O)C1=C(SC)SC2(C(=O)OC)C3C=C(C)C4C(N13)C42C(=O)OC (stereo not drawn) | > 100 | > 100 | > 100 | > 100 | > 100 | > 100 | > 100 | > 100 | > 100 |  |  |  |  |  |  |  |  |  | 
5 | CC1=NN(C(=O)CC(=O)Nc2ccccc2)C(=O)C1N=Nc1ccc(S(N)(=O)=O)cc1 (stereo not drawn) | > 100 | > 100 | > 100 | > 100 | > 100 | > 100 | > 100 | > 100 | > 100 |  |  |  |  |  |  |  |  |  | 
6 | COc1cc2c3c(c1OC)C1(C=CC(=O)C=C1)CC3N(C(=O)OC(C)(C)C(Cl)(Cl)Cl)CC2 (stereo not drawn) | 28.8 | 27.2 | 28.9 | 32.2 | 22.4 | 31.9 | 33.1 | 30.8 | 9.04 |  |  |  |  |  |  |  |  |  | 
7 | Cc1cc(C)c(-c2noc(-c3ccc(Cl)cc3)c2C2=NCCN2)c(C)c1 | 29.3 | 37.7 | 27.6 | > 100 | 34.3 | 62 | 68.3 | 32.1 | 50.6 |  |  |  |  |  |  |  |  |  | 
8 | CC(C)(C)NC(=O)C12C3C4C1C1C2C3C41I (stereo not drawn) | > 100 | > 100 | > 100 | > 100 | > 100 |  | > 100 | > 100 | > 100 |  |  |  |  |  |  |  |  |  | 
9 | COC(=O)C1=C(O)C(C(=O)OC)[C@@]2(O)[C@@H](C(=O)OC)C(c3ccccc3C(F)(F)F)C[C@@H]1[C@@H]2C(=O)OC (stereo partly drawn) | 16.4 |  |  | 13.6 | 7.28 | 36.4 |  | 10.5 | > 100 | 4.49 | 20.4 | 7.99 | 22.4 | 3.11 | 2400 | 1.81 | 2010 |  | 
10 | CCOc1cccc2cccnc12 | > 100 | > 100 | > 100 | > 100 |  | > 100 | > 100 | > 100 | > 100 |  |  |  |  |  |  |  |  |  | 
11 | COc1ccc(OC)c(-c2cc(-c3ccc(Cl)cc3)nn2-c2ccc(S(N)(=O)=O)cc2)c1 | 27.1 |  | 44.4 |  |  |  | 26.1 | 93 | 3.72 | 13.2 |  | 6.05 | 19 | 10.6 | 1720 |  |  | 11.4 | 17.2
12 | COc1ccc2c(c1)C(CCN)C(=O)N2 (stereo not drawn) | > 100 | > 100 | > 100 |  | > 100 | > 100 |  | > 100 | > 100 |  |  |  |  |  |  |  |  |  | 
13 | OCCOCn1nc(-c2ccccc2)nc1-c1cnccn1 | > 100 |  | > 100 | > 100 | > 100 | > 100 |  | > 100 | > 100 |  |  |  | > 100 |  |  |  |  |  | 
14 | CC(=O)NC1=NC(=O)/C(=C/c2ccc(Cl)cc2Cl)N1C | > 100 |  | > 100 | > 100 | > 100 | > 100 | 82.5 | > 100 |  |  |  |  | > 100 |  |  |  |  |  | 
15 | COc1ncn(C2C=C(CO)C(O)C2O)c(=O)n1 (stereo not drawn) | > 100 | > 100 |  |  | > 100 | > 100 | > 100 | > 100 | > 100 |  |  |  |  |  |  |  |  |  | 
16 | O=C(CCCCCCCCC(=O)OCCCn1cc(C(=O)NC(=O)OCc2ccccc2)c(=O)[nH]c1=O)OCCCn1cc(C(=O)NC(=O)OCc2ccccc2)c(=O)[nH]c1=O | > 100 | > 100 | > 100 | > 100 | > 100 | > 100 | > 100 | > 100 | > 100 |  |  |  |  |  |  |  |  |  | 
17 | Cn1c(=O)c2[nH]c(Nc3ccccc3)nc2n(C)c1=O | > 10 | > 10 | > 10 |  |  | > 10 |  |  | > 10 |  |  |  | > 10 |  |  |  |  |  | 
18 | S=c1sc2ccccc2n1CN1CCN(Cc2ccccc2)CC1 | > 100 |  | > 100 | > 100 | > 100 | > 100 | > 100 | > 100 | > 100 |  |  |  |  |  |  |  |  |  | 
19 | Nc1ccc(Cl)cc1.Nc1ccc(Cl)cc1.Nc1ccc(Cl)cc1.O=C([O-])C(=O)[O-].O=C([O-])C(=O)[O-].[H+].[Ru+5] | > 100 | > 100 |  | > 100 | > 100 |  | > 100 | > 100 | > 100 | 1.44 | 0.691 |  |  | 1.05 | 147 | 31.4 | 938 | 99.4 | 0.127
20 | O=C(O)C(=O)/C=C\c1ccc(Cl)cc1 | > 100 | > 100 | > 100 | > 100 | > 100 | > 100 | > 100 | > 100 | > 100 |  |  |  |  |  |  |  |  |  | 
21 | COc1ccccc1NC(=O)CC(=O)NNCC(=O)Nc1nc(-c2ccccc2)cs1 | > 100 |  | > 100 | > 100 | > 100 | > 100 | > 100 | > 100 | > 100 |  |  |  |  |  |  |  |  |  | 
22 | COC(=O)c1ccc2n[se]nc2c1 | > 100 | > 100 | > 100 | > 100 | > 100 | > 100 |  | > 100 | > 100 |  |  |  |  |  |  |  |  |  | 
